Test results from PMC7539012, “Hyperphosphorylated tau aggregation and cytotoxicity modulators screen identified prescription drugs linked to Alzheimer's disease and cognitive functions” (Scientific Reports, 2020).
Where a name gives a salt, the structure may show the parent alone. Read-outs that look alike come from different tables or passages of the source.

Tested on: T1, 1N4R p-tau
T1 construct: made in house; host or cells: E. coli (PIMAX system)
Assay: p-tau aggregation modulator screen of 1280-compound library (ThS fluorescence net change over 16 h);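 for ThS net change: 30 µM compound with 6 µM p-tau over 16 h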
Format: biochemical
Design: key to PTAI>2SD: *: PTAI>2SD

[1] = 1280-compound library screen, ThS fluorescence net change over 16 h
[2] = p-tau aggregation modulator screen of 1280-compound library, […]
[3] = p-tau aggregation modulator screen of 1280-compound library, ThS fluorescence net change
[4] = p-tau aggregation modulator screen of the compound library, ThS fluorescence net change
[5] = 1280-compound library screen, […]
[6] = library screen, ThS fluorescence net change over 16 h with p-tau

## COc1c2occc2c(OC)c2c(=O)cc(C)oc12 [Khellin]
[1]
  ThS net change: 389

## Cl.O[C@@H]1CCCC[C@H]1N1CCC(c2ccccc2)CC1 [L(-)-vesamicol hydrochloride]
[2]
  ThS net change: 360

## CC(CCc1ccccc1)NCC(O)c1ccc(O)c(C(N)=O)c1 (stereo not drawn) [Labetalol hydrochloride]
[3]
  ThS net change: 353

## CCOC(=O)C1=C(C)NC(C)=C(C(=O)OCC)C1c1ccccc1/C=C/C(=O)OC(C)(C)C [Lacidipine]
[4]
  ThS net change: 452

## Nc1ccn([C@@H]2CS[C@H](CO)O2)c(=O)n1 [Lamivudine]
[4]
  ThS net change: 424

## Nc1nnc(-c2cccc(Cl)c2Cl)c(N)n1 [Lamotrigine]
[1]
  ThS net change: 389

## CC(=O)O[C@H]1C[C@H](O[C@H]2[C@@H](O)C[C@H](O[C@H]3[C@@H](O)C[C@H](O[C@H]4CC[C@@]5(C)[C@H](CC[C@@H]6[C@@H]5C[C@@H](O)[C@]5(C)[C@@H](C7=CC(=O)OC7)CC[C@]65O)C4)O[C@@H]3C)O[C@@H]2C)O[C@H](C)[C@H]1O[C@@H]1O[C@H](CO)[C@@H](O)[C@H](O)[C@H]1O [Lanatoside C]
[5]
  ThS net change: 411

## Cc1c(OCC(F)(F)F)ccnc1C[S+]([O-])c1nc2ccccc2[nH]1 (stereo not drawn) [Lansoprazole]
[4]
  ThS net change: 510

## CC(C)OC(=O)CCC/C=C\C[C@@H]1[C@@H](CC[C@@H](O)CCc2ccccc2)[C@H](O)C[C@@H]1O [Latanoprost]
[4]
  ThS net change: 519

## Cc1oncc1C(=O)Nc1ccc(C(F)(F)F)cc1 [Leflunomide]
[3]
  ThS net change: 344

## N#Cc1ccc(C(c2ccc(C#N)cc2)n2cncn2)cc1 [Letrozole]
[4]
  ThS net change: 453

## CC(C)(C)NC[C@H](O)c1ccc(O)c(CO)c1 [Levalbuterol hydrochloride]
[4]
  ThS net change: 422

## c1ccc([C@H]2CN3CCSC3=N2)cc1 [Levamisole hydrochloride]
[3]
  ThS net change: 376

## CC[C@@H](C(N)=O)N1CCCC1=O [Levetiracetam]
[1]
  ThS net change: 407

## C[C@@H]1CN([C@H]2CC[C@](C#N)(c3ccc(F)cc3)CC2)CC[C@]1(C(=O)O)c1ccccc1 [Levocabastine hydrochloride]
[4]
  ThS net change: 416

## N[C@@H](Cc1ccc(O)c(O)c1)C(=O)O [Levodopa]
[4]
  ThS net change: 444

## C[C@H](N)[C@H](O)c1ccc(O)c(O)c1 [Levonordefrin]
[5]
  ThS net change: 387

## CCC(=O)O[C@@](Cc1ccccc1)(c1ccccc1)[C@@H](C)CN(C)C [Levopropoxyphene napsylate]
  ThS net change: 434

## CCN(CC)CC(=O)Nc1c(C)cccc1C [Lidocaine hydrochloride]
  ThS net change: 271

## Cc1cccc(C)c1NC(=O)CN1CCN(CCCC(c2ccc(F)cc2)c2ccc(F)cc2)CC1 [Lidoflazine]
[3]
  ThS net change: 341

## CCC[C@@H]1C[C@@H](C(=O)N[C@@H]([C@H]2O[C@H](SC)[C@H](O)[C@@H](O)[C@H]2O)[C@@H](C)O)N(C)C1 [Lincomycin hydrochloride]
[3]
  ThS net change: 367

## CC(=O)NC[C@H]1CN(c2ccc(N3CCOCC3)c(F)c2)C(=O)O1 [Linezolid]
[1]
  ThS net change: 405

## N[C@@H](Cc1cc(I)c(Oc2ccc(O)c(I)c2)c(I)c1)C(=O)O [Liothyronine]
[6]
  ThS net change: 298

## COc1cccc(N(C)C(=S)Oc2ccc3c(c2)CCCC3)n1 [Liranaftate]
  ThS net change: 435

## NCCCC[C@H](N[C@@H](CCc1ccccc1)C(=O)O)C(=O)N1CCC[C@H]1C(=O)O [Lisinopril]
[3]
  ThS net change: 328

## C[C@H](CCC(=O)O)[C@H]1CC[C@H]2[C@@H]3CC[C@@H]4C[C@H](O)CC[C@]4(C)[C@H]3CC[C@]12C [Lithocholic acid]
[4]
  ThS net change: 566

## N#Cc1cc(NC(=O)C(=O)O)c(Cl)c(NC(=O)C(=O)O)c1 [Lodoxamide]
[1]
  ThS net change: 409

## CN(CCCN1c2ccccc2CCc2ccccc21)CC(=O)c1ccc(Cl)cc1 [Lofepramine]
[3]
  ThS net change: 375

## CC(Oc1c(Cl)cccc1Cl)C1=NCCN1 (stereo not drawn) [Lofexidine]
[1]
  ThS net change: 408

## CCn1cc(C(=O)O)c(=O)c2cc(F)c(N3CCNC(C)C3)c(F)c21 (stereo not drawn) [Lomefloxacin hydrochloride]
[1]
  ThS net change: 390

## COc1ccc(CN2CCN(C(c3ccc(F)cc3)c3ccc(F)cc3)CC2)c(OC)c1OC.Cl [Lomerizine hydrochloride]
[4]
  ThS net change: 458

## CN(C)C(=O)C(CCN1CCC(O)(c2ccc(Cl)cc2)CC1)(c1ccccc1)c1ccccc1 [Loperamide hydrochloride]
  ThS net change: 326

## N[C@@H](C(=O)N[C@@H]1C(=O)N2C(C(=O)O)=C(Cl)CC[C@H]12)c1ccccc1 [Loracarbef]
[3]
  ThS net change: 361

## CCOC(=O)N1CCC(=C2c3ccc(Cl)cc3CCc3cccnc32)CC1 [Loratadine]
[4]
  ThS net change: 450

## CCCCCN(CCCCC)C(=O)C(CCC(=O)[O-])NC(=O)c1ccc(Cl)c(Cl)c1.[Na+] (stereo not drawn) [Lorglumide sodium salt]
[4]
  ThS net change: 520

## CCCCc1nc(Cl)c(CO)n1Cc1ccc(-c2ccccc2-c2nn[nH]n2)cc1 [Losartan]
[4]
  ThS net change: 468

## CCOC(=O)O[C@]1(C(=O)OCCl)CC[C@H]2[C@@H]3CCC4=CC(=O)C=C[C@]4(C)[C@H]3[C@@H](O)C[C@@]21C [Loteprednol etabonate]
[4]
  ThS net change: 531

## CC[C@H](C)C(=O)O[C@H]1C[C@@H](C)C=C2C=C[C@H](C)[C@H](CC[C@@H]3C[C@@H](O)CC(=O)O3)[C@H]21 [Lovastatin]
[1]
  ThS net change: 408

## CN1CCN(C2=Nc3ccccc3Oc3ccc(Cl)cc32)CC1 [Loxapine succinate]
[3]
  ThS net change: 358

## O=c1cc(-c2ccc(O)c(O)c2)oc2cc(O)cc(O)c12 [Luteolin]
[6]
  ThS net change: 296

## C#C[C@]1(O)CC[C@H]2[C@@H]3CCC4=CCCC[C@@H]4[C@H]3CC[C@@]21C [Lynestrenol]
[1]
  ThS net change: 408

## NCc1ccc(S(N)(=O)=O)cc1 [Mafenide hydrochloride]
[4]
  ThS net change: 415

## CNCCCC12CCC(c3ccccc31)c1ccccc12 [Maprotiline hydrochloride]
[3]
  ThS net change: 370

## COC(=O)Nc1nc2ccc(C(=O)c3ccccc3)cc2[nH]1 [Mebendazole]
[3]
  ThS net change: 340

## CCN(CCCCOC(=O)c1ccc(OC)c(OC)c1)C(C)Cc1ccc(OC)cc1 (stereo not drawn) [Mebeverine hydrochloride]
[6]
  ThS net change: 295

## CN1CCc2c(c3ccccc3n2Cc2ccccc2)C1.O=S(=O)(O)c1cccc2c(S(=O)(=O)O)cccc12 [Mebhydroline 1,5-naphtalenedisulfonate]
[5]
  ThS net change: 385

## CNC1(C)C2CCC(C2)C1(C)C (stereo not drawn) [Mecamylamine hydrochloride]
[4]
  ThS net change: 418

## C=C1c2c(Cl)ccc(O)c2C(=O)C2=C(O)[C@]3(O)C(=O)C(C(N)=O)=C(O)[C@@H](N(C)C)[C@@H]3[C@@H](O)[C@H]12.O=C(O)c1cc(S(=O)(=O)O)ccc1O [Meclocycline sulfosalicylate]
flag: p-tau aggregation inhibitor, ThS net change more than 2 SD from mean
  PTAI>2SD: *
[6]
  ThS net change: 171

## CN(C)CCOC(=O)COc1ccc(Cl)cc1.Cl [Meclofenoxate hydrochloride]
[2]
  ThS net change: 359

## Cc1cccc(CN2CCN(C(c3ccccc3)c3ccc(Cl)cc3)CC2)c1.Cl.Cl (stereo not drawn) [Meclozine dihydrochloride]
[4]
  ThS net change: 430

## CC(=O)[C@H]1CC[C@H]2[C@@H]3C[C@H](C)C4=CC(=O)CC[C@]4(C)[C@H]3[C@@H](O)C[C@]12C [Medrysone]
[1]
  ThS net change: 388

## Cc1cccc(Nc2ccccc2C(=O)O)c1C [Mefenamic acid]
[3]
  ThS net change: 353

## CCN(CC)CCNC(=O)COc1ccc(OC)cc1.Cl [Mefexamide hydrochloride]
[3]
  ThS net change: 331

## OC(c1cc(C(F)(F)F)nc2c(C(F)(F)F)cccc12)C1CCCCN1 (stereo not drawn) [Mefloquine hydrochloride]
[6]
  ThS net change: 304

## CC(=O)O[C@]1(C(C)=O)CC[C@H]2[C@@H]3C=C(C)C4=CC(=O)CC[C@]4(C)[C@H]3CC[C@@]21C [Megestrol acetate]
[3]
  ThS net change: 343

## CNC[C@H](O)[C@@H](O)[C@H](O)[C@H](O)CO [Meglumine]
[3]
  ThS net change: 368

## COc1ccc2[nH]cc(CCNC(C)=O)c2c1 [Melatonin]
[3]
  ThS net change: 356

## C=C1C[C@H]2[C@@H]3C=C(C)C4=CC(=O)CC[C@]4(C)[C@H]3CC[C@]2(C)[C@@]1(OC(C)=O)C(C)=O [Melengestrol acetate]
[1]
  ThS net change: 404

## Cc1cnc(NC(=O)C2=C(O)c3ccccc3S(=O)(=O)N2C)s1 [Meloxicam]
[3]
  ThS net change: 375

## CC12CC3CC(C)(C1)CC(N)(C3)C2 [Memantine Hydrochloride]
[1]
  ThS net change: 405

## C[N+]1(C)CCCC(OC(=O)C(O)(c2ccccc2)c2ccccc2)C1 (stereo not drawn) [Mepenzolate bromide]
[2]
  ThS net change: 366

## Cc1ccccc1OCC(O)CO (stereo not drawn) [Mephenesin]
[3]
  ThS net change: 350

## CNC(C)(C)Cc1ccccc1.CNC(C)(C)Cc1ccccc1.O=S(=O)(O)O [Mephentermine hemisulfate]
[5]
  ThS net change: 380

## CCC1(c2ccccc2)NC(=O)N(C)C1=O (stereo not drawn) [Mephenytoin]
[4]
  ThS net change: 453

## Cc1cccc(C)c1NC(=O)C1CCCCN1C (stereo not drawn) [Mepivacaine hydrochloride]
[4]
  ThS net change: 428

## CCCNC(C)(C)COC(=O)c1ccccc1 [Meprylcaine hydrochloride]
[1]
  ThS net change: 405

## CCC1(c2cccc(O)c2)CCCCN(C)C1 (stereo not drawn) [Meptazinol hydrochloride]
  ThS net change: 462

## S=c1[nH]cnc2nc[nH]c12 [Mercaptopurine]
[4]
  ThS net change: 426

## C[C@@H](O)[C@H]1C(=O)N2C(C(=O)O)=C(S[C@@H]3CN[C@H](C(=O)N(C)C)C3)[C@H](C)[C@H]12 [Meropenem]
[4]
  ThS net change: 490

## Nc1ccc(O)c(C(=O)O)c1 [Mesalamine]
[3]
  ThS net change: 363

## O=S(=O)(O)CCS [Mesna]
[4]
  ThS net change: 424

## CN1CCCCC1CCN1c2ccccc2Sc2ccc([S+](C)[O-])cc21 (stereo not drawn) [Mesoridazine besylate]
[1]
  ThS net change: 391

## C[C@H](N)[C@H](O)c1cccc(O)c1 [Metaraminol bitartrate]
[6]
  ThS net change: 321

## CN1C[C@H](CNC(=O)OCc2ccccc2)C[C@@H]2c3cccc4c3c(cn4C)C[C@H]21 [Metergoline]
[3]
  ThS net change: 349
